The results in this text go back to patent EP2157088A1, “INDICYANINE DYES AND THE DERIVATIVES THEREOF FOR ANALYSING BIOLOGICAL MICROMOLECULES” (UCHREZHDENIE ROSSIISKOI AKADEMII NAUK INSTITUT …, priority 2007, dated 2008).

Where only a bound is given, the exact number is not on record here.

What all share (format): physicochemical
The nature of data set [1]: Relative efficiency of fluorescence / absolute sensitivity of label, normalized to dye A30 in PBS. The conditions noted are these: for Sensitivity of record 635/ 670: excitation 635 nm, record 670 nm; for Sensitivity of record 655/ 690: excitation 655 nm, record 690 nm; for Sensitivity of record max/ max: excitation and record in absorption and fluorescence maxima, ε*Φ normalized to A30 in PBS. The text has this:
The data obtained were as follows: • on excitation and record in absorption and fluorescence maxima, the relative efficiency of fluorescence exceeds 0.80 for dyes (A10), (A22), (A23), (A25), and (A30) in methanol and for dyes (A22), (A25), and (A30) in PBS (Table 1, Fig. 4), whereas for dyes of formula (I) (R1 = -CH3, R2= R6= -SO3^-; R3= -(CH2)5COOH, R4= -C2H5; R5= -H) the values are 0.69 in methanol and 0.67 in PBS; • on excitation at wavelength 655 nm and record at 690 nm, the relative efficiency of fluorescence exceeds 0.25 for dyes (A25) and (A30) in methanol and is higher than 0.18 for dyes (A24) and (A30) in PBS (Table 1, Fig. 5), whereas for dyes of formula (I) (R1 = -CH3, R2 = R6= -SO3^-; R3= -(CH2)5COOH, R4= -C2H5; R5= -H) the values are 0.18 in methanol and 0.11 in PBS; • on excitation at wavelength 635 nm and record at 670 nm, the relative efficiency of fluorescence exceeds 0.50 for dyes (A1), (A11), (A23) in methanol and is higher than 0.45 for dyes (A22), (A25), and (A30) in PBS (Table 1, Fig. 6), whereas for dyes of formula (I) (R1= -CH3, R2= R6= -SO3^-; R3= -(CH2)5COOH, R4= -C2H5; R5= -H) the values are 0.44 in methanol and 0.38 in PBS.
Term sensitivity of fluorescent analysis is defined by the absolute sensitivity of label that may be represented as the product of molar extinction coefficient by quantum efficiency of fluorescence (ε*Φ). Thus, there are determined the absolute sensitivity of indodicarbocyanines (A1-A30, B1-B7) in appropriate absorption and fluorescence maxima in methanol and in aqueous phosphate buffered saline. The values are normalized to the maximal value obtained for dye (A30) in PBS (Table 1). In methanol, dyes (A10, A22, A23, A25, A30) have the upper-range of absolute sensitivity, but in PBS, dyes (A10, A22, A25, A29, A30) have the maximal values of sensitivity (Fig. 4).
To determine the most appropriate dyes for instrument setting, there are measured the relative efficiency of fluorescence of dyes at wavelength of excitation and record of the instrument (655 nm. / 690 nm). The maximal values appear to be specific to dyes (A25) and (A30) in methanol, and to dyes (A19, A22, A25, A29, A30) in PBS (Table 1, Fig. 5).
There are also measured the relative efficiency of fluorescence at wavelength of excitation and record of the instrument (635 nm / 670 nm). The maximal values appear to be specific to dyes (A1, A10, A11, A23) in methanol, and to dyes (A10, A22, A25, A29, A30) in PBS (Table 1, Fig. 6).

A short description of data set [2]: Absorption and fluorescence maxima of the dyes. From the text: An insertion of methyl group at 5- and 7-positions of indolenyne cycle produces a bathochromic shift in the absorption and fluorescent spectra. As to the rest sulfur containing dyes, the spectral characteristics thereof appear to be in the same range (between about λmax 648 nm and λem 669 nm) (Fig. 1),

Data set [3] can be described thus: Quantum efficiency of fluorescence, measured versus a reference dye. The method, then:
For all indodicarbocyanine dyes (I) (A1) - (A30) and (B1) - (B7) of the invention, there are determined the quantum efficiency of fluorescence in methanol and in aqueous phosphate buffered saline (Table 1, Fig. 3). The measurements are performed versus dyes of formula (I) (R1= -CH3, R2= R6= -SO3^-; R3= -(CH2)5COOH, R4= -C2H5, R5= -H) whose quantum efficiency of fluorescence in PBS is 0.27 (Mader O., K. Reider, H.-J. Egelhaaaf, R, Fischer, R. Brock, Structure Properties of Pentamethine Indocyanine Dyes: Identification of New Dyes for Life Science Applications. Bioconjugate Chem, 2004, vol. 15, pp. 70-78). In methanol, dyes (A10, A22, A25, A29, A30) have the upper-range of quantum efficiency of fluorescence (Φ ∼ 0.3), but in PBS, dyes (A10, A22, A25, A29, A30) have the maximal Φ -value.

A short description of data set [4]: Molar extinction coefficient in methanol and PBS. Set-up: ε·10^-5: unit not given here. On the procedure:
For all indodicarbocyanine dyes (I) (A1) - (A30) and (B1) - (B7) of the invention, there are determined the molar extinction coefficients in methanol and in aqueous phosphate buffered saline (PBS) (10 mM potassium phosphate buffer, sodium chloride concentration is 0.9%, pH 7.4). In methanol, indodicarbocyanine (A1, A8, A10-A12, A17, A23) has the upper-range of molar extinction coefficient (ε >[…]). In aqueous phosphate buffered saline (PBS), dyes (A10, A23, A30) have the maximal ε-value (Fig. 2).

[5] abbreviates: PBS (10 mM potassium phosphate buffer, 0.9% sodium chloride, pH 7.4).

On to `CC[N+]1=C(/C=C/C=C/C=C2/N(CCCCS(=O)(=O)[O-])c3ccccc3C2(C)CCCCC(=O)O)C(C)(C)c2cc(C)cc(C)c21` (stereo not shown) [A3, 3-(4-Carboxybutyl)-3,3',3',5',7'-pentamethyl-N-(4-sulfobutyl)-N'-ethylindodicarbocyanine], for which the entries for the “Sensitivity of record 635/ 670” value in data set [1] (MeOH) and in data set [1] (PBS) were 0.210 and 0.132, respectively. For the same compound, the “Sensitivity of record 655/ 690” value in data set [1] (MeOH) was 0.138; in data set [1] (PBS) it was 0.069. Also, the “Sensitivity of record max/ max” value in data set [1] (MeOH) stood at 0.314; in data set [1] (PBS), 0.199. The entries for the “λmax^abs” value in data set [2] (MeOH) and in data set [2] (PBS) were 652 nm and 650 nm, respectively. In addition, the “λmax^em” value in data set [2] (MeOH) was found to be 670 nm; in data set [2] (PBS), 665 nm. Further, the “Φ (quantum efficiency of fluorescence)” value in data set [3] (MeOH) amounted to 0.12; in data set [3] (PBS), 0.08. Moreover, the results for the “ε·10^-5” value in data set [4] (MeOH) and in data set [4] (setting [5]) were 1.93±0.01 and 1.84±0.01, respectively.
Regarding `CCN1C(=CC=CC=CC2=[N+](CCCCS(=O)(=O)[O-])c3ccc(C)cc3C2(C)CCCCC(=O)O)C(C)(C)c2ccccc21` (stereo not shown) [A4, 3-(4-Carboxybutyl)-N-(4-sulfobutyl)-3,3',3',5-tetramethyl-N'-ethylin:dodicarbpcyanine], the “Sensitivity of record 635/ 670” value in data set [1] (MeOH) is 0.243; in data set [1] (PBS), 0.162. Moreover, the “Sensitivity of record 655/ 690” value in data set [1] (MeOH) worked out at 0.143; in data set [1] (PBS), 0.054. The results for the “Sensitivity of record max/ max” value in data set [1] (MeOH) and in data set [1] (PBS) were 0.381 and 0.255, respectively. Besides, the “λmax^abs” value in data set [2] (MeOH) stood at 651 nm; in data set [2] (PBS) it was 649 nm. The “λmax^em” value stood at 668 nm in data set [2] (MeOH) and 665 nm in data set [2] (PBS). The “Φ (quantum efficiency of fluorescence)” value in data set [3] (MeOH) worked out at 0.14; in data set [3] (PBS), 0.10. Moreover, the “ε·10^-5” value in data set [4] (MeOH) was found to be 2.14±0.03; in data set [4] (setting [5]) it was 2.1 ± 0.03.
As to `CCN1C(=CC=CC=CC2=[N+](CCCCS(=O)(=O)[O-])c3ccc(C)cc3C2(C)CCCCC(=O)O)C(C)(C)c2cc(C)ccc21` (stereo not shown) [A5, 3-(4-Carboxybutyl)-3,3',3',5,5'-pentamethyl-N-(4-sulfobutyl)-N'-ethylindodicarbocyanine], the figures for the “Sensitivity of record 635/ 670” value in data set [1] (MeOH) and in data set [1] (PBS) were 0.212 and 0.136, respectively. The “Sensitivity of record 655/ 690” value was determined as 0.229 in data set [1] (MeOH) and 0.096 in data set [1] (PBS). The “Sensitivity of record max/ max” value amounted to 0.391 in data set [1] (MeOH) and 0.238 in data set [1] (PBS). For the same compound, the “λmax^abs” value in data set [2] (MeOH) was 654 nm; in data set [2] (PBS), 653 nm. The “λmax^em” value in data set [2] (MeOH) turned out to be 674 nm; in data set [2] (PBS), 670 nm. Moreover, the “Φ (quantum efficiency of fluorescence)” value in data set [3] (MeOH) was 0.16; in data set [3] (PBS), 0.09. Moreover, the “ε·10^-5” value in data set [4] (MeOH) is reported as 2.05±0.02; in data set [4] (setting [5]), 1.96±0.02.
In the case of `CC[N+]1=C(/C=C/C=C/C=C2/N(CCCCS(=O)(=O)[O-])c3ccc(C)cc3C2(C)CCCCC(=O)O)C(C)(C)c2cc(C)cc(C)c21` (stereo not shown) [A6, 3,3',3',5,5'.7'-hexamethyl-3-(4-carboxybutyl)-N-(4-sulfobutyl)-N'-ethylindodicarbocyanine], the figures for the “Sensitivity of record 635/ 670” value in data set [1] (MeOH) and in data set [1] (PBS) were 0.151 and 0.089, respectively. Moreover, the “Sensitivity of record 655/ 690” value in data set [1] (MeOH) was determined as 0.198; in data set [1] (PBS) it was 0.085. Further, the “Sensitivity of record max/ max” value in data set [1] (MeOH) was found to be 0.292; in data set [1] (PBS), 0.170. The “λmax^abs” value in data set [2] (MeOH) stood at 654 nm; in data set [2] (PBS), 656 nm. For the same compound, the “λmax^em” value was 672 nm in data set [2] (MeOH) and 676 nm in data set [2] (PBS). Moreover, the “Φ (quantum efficiency of fluorescence)” value in data set [3] (MeOH) is listed as 0.11; in data set [3] (PBS), 0.07. Also, the “ε·10^-5” value in data set [4] (MeOH) is 2.13±0.03; in data set [4] (setting [5]) it was 1.82±0.03.
Turning to `CCN1/C(=C/C=C/C=C/C2=[N+](CC)c3ccc(S(=O)(=O)[O-])cc3C2(C)C)C(C)(CCCCC(=O)O)c2ccccc21` (stereo not shown) [A7, N,N'-diethyl-3-(4-carboxybutyl)-5'-sulfo-3,3',3'-trimethylindodicarbocyanine], the “Sensitivity of record 635/ 670” value was 0.359 in data set [1] (MeOH) and 0.207 in data set [1] (PBS). The “Sensitivity of record 655/ 690” value in data set [1] (MeOH) is 0.102; in data set [1] (PBS) it was 0.049. Besides, the “Sensitivity of record max/ max” value in data set [1] (MeOH) was determined as 0.514; in data set [1] (PBS), 0.353. Further, the “λmax^abs” value stood at 647 nm in data set [2] (MeOH) and 646 nm in data set [2] (PBS). In addition, the “λmax^em” value in data set [2] (MeOH) turned out to be 660 nm; in data set [2] (PBS), 663 nm. In addition, the “Φ (quantum efficiency of fluorescence)” value in data set [3] (MeOH) is recorded as 0.23; in data set [3] (PBS) it was 0.14. In addition, the “ε·10^-5” value in data set [4] (MeOH) was 1.78±0.02; in data set [4] (setting [5]), 1.80±0.03.
`CC[N+]1=C(C=CC=CC=C2N(CCCCS(=O)(=O)[O-])c3ccccc3C2(C)C)C(C)(CCCCC(=O)O)c2ccccc21` (stereo not shown) [A8, 3-(4-carboxybutyl)-N'-(4-sulfobutyl)-3,3',3'-trimethyl-N-ethylindodicarbocyanine]: the results for the “Sensitivity of record 635/ 670” value in data set [1] (MeOH) and in data set [1] (PBS) were 0.493 and 0.262, respectively. Besides, the “Sensitivity of record 655/ 690” value in data set [1] (MeOH) worked out at 0.134; in data set [1] (PBS), 0.054. Also, the “Sensitivity of record max/ max” value in data set [1] (MeOH) is reported as 0.730; in data set [1] (PBS) it was 0.433. The “λmax^abs” value turned out to be 647 nm in data set [2] (MeOH) and 646 nm in data set [2] (PBS). For the same compound, the “λmax^em” value in data set [2] (MeOH) came to 662 nm; in data set [2] (PBS), 660 nm. Moreover, the “Φ (quantum efficiency of fluorescence)” value in data set [3] (MeOH) is reported as 0.26; in data set [3] (PBS), 0.15. Further, the figures for the “ε·10^-5” value in data set [4] (MeOH) and in data set [4] (setting [5]) were 2.20±0.02 and 2.13±0.02, respectively. For the same compound, in data set [4] (in methanol), the molar extinction coefficient (ε) was over 220000 M⁻¹ cm⁻¹.
